Consider one substance from patent publication US4091092A, “Polymyxin F and process of producing polymyxin F” (priority 1977, dated 1978).

What all share (test): Comparison of activities of polymyxins B and F, MIC
What all share (type): cell-based

One test concerns Escherichia coli SC9253. The conditions noted are these: Polymyxin-resistant variant of E. coli SC9251. The source says: (§1) *Organisms from the Squibb Culture Collection.
(§2) ^b Polymyxin-resistant variants of E. coli SC9251

A further test deals with Escherichia coli SC9252. The conditions noted are these: Polymyxin-resistant variant of E. coli SC9251.
Description: as §1, §2

For another test, the system named is Escherichia coli SC8600. The following applies: Polymyxin-resistant variant of E. coli SC8599.
Description: as §1
^a Polymyxin-resistant variant of E. coli SC8599

For the next test, the system named is Escherichia coli SC9251. The following applies: E. coli SC9251.
Description: as §1

In the next test the test system is Escherichia coli SC8599. The following applies: E. coli SC8599.
Description: as §1

One may read the MIC as the lowest concentration that inhibits growth of the organism. In the case of Polymyxin B, the MIC against Escherichia coli SC9253 was 50.0 µg/mL; against Escherichia coli SC9252, 18.7 µg/mL; with Escherichia coli SC8600, over 100 µg/mL; against Escherichia coli SC9251 it was 0.06 µg/mL; in the test on Escherichia coli SC8599, 0.1 µg/mL.
